# Values quoted from earlier work in article PMC5733301, “Antitubercular Nitroimidazoles Revisited: Synthesis and Activity of the Authentic 3-Nitro Isomer of Pretomanid” (ACS Medicinal Chemistry Letters, 2017).
# Assays:
# [1] = tested on: M. tb having mutations in the nitroreductase Ddn; parameters: method as in PMID 19209889; details: ref [22]; cited from earlier work
# [2] = tested on: M. tb having mutations in the nitroreductase Ddn; parameters: method as in PMID 19209889; details: ref [22]; cited from earlier work; remark: listed apart in the source
smiles,measurement,setting,value
O=[N+]([O-])c1cn2c(n1)O[C@H](COCc1ccc(OC(F)(F)F)cc1)C2 [compound 20],anaerobic MIC90 against Ddn mutant M. tb,[1],62.5 to 125 µM
same,aerobic MIC99 against Ddn mutant M. tb,[2],> 100 µM
